What was measured:
Mus musculus [1] = test: Acute toxicity in ddY mouse at 38 mg/mouse, ip assessed as death after 12 hrs; type: organism-based; details: in vivo
Mus musculus [2] = test: Acute toxicity in ddY mouse at 2 mg/mouse, ip assessed as death after 12 hrs; type: organism-based; details: in vivo

C=C[C@H]1[C@H](O[C@@H]2O[C@H](CO)[C@@H](O)[C@H](O)[C@H]2O)OC=C(C(=O)OC)[C@H]1CC(OC)OC [SECOLOGANIN DIMETHYL ACETAL]
Activity (Mus musculus [1]): Non-toxic

C=C[C@H]1[C@H](O[C@@H]2O[C@H](CO)[C@@H](O)[C@H](O)[C@H]2O)OC=C(C(=O)OC)[C@H]1C[C@@H]1OC[C@H]2O[C@@H](O[C@@H]3OC=C(C(=O)OC)[C@@H](CC(OC)OC)[C@H]3C=C)[C@H](O)[C@@H](O)[C@@H]2O1 [KOROLKOSIDE]
Activity (Mus musculus [2]): Non-toxic
